Test system: LraA (L-rhamnose dehydrogenase)
Assay: NADH formation at […] nm, Michaelis-Menten fit
Type: biochemical, Aspergillus niger
Conditions: NAD+ 1 mM as co-substrate, 100 mM Tris-HCl pH 8.0, 25 °C

Compound: C[C@@H]1OC(O)[C@H](O)[C@H](O)[C@H]1O (stereo partly drawn) [L-rhamnose]
- Km: 2400 ± 900 µM

From PMC12028159, “L-Rhamnose Dehydrogenase LraA of Aspergillus niger Shows High Substrate Specificity Matching Its Expression Profile” (Journal of Fungi, 2025)
